According to patent US20050123603A1, “Natural menaquinone 7 compositions” (Natural ASA, priority 2003, published 2005):

What was measured:
osteocalcin [1] = test: bone turnover measured as ucOC+cOC during 6-week supplementation; format: in vivo, human
Description: (§1) An open study was conducted in which 12 volunteers were randomized in two groups receiving either 180 μg MK-7 (menaquinone 7, 0.27 μmol) or 150 μg K1 (0.33 μmol) per day. The MK-7 was obtained from 2 nattoK2 capsules (Natural ASA) per day, the K1 from a pharmacological preparation (Roche). The supplements were taken at 18.00 h of each day during the 6-week study period. Blood was taken between 08.00 and 09.00 h of days 0 (baseline), 3, 7, 14, 21, 28, 35, and 42. A non-treated control group (n=3) served as a reference group, with blood drawings on days 0, 14, 28, and 42.
(§2) Measurements: vitamin K1, MK-7, under-carboxylated osteocalcin (ucOC) and carboxylated osteocalcin (cOC).
(§3) Study population: 6 men and 6 women, aged 55-60 (women postmenopausal). Non-treated controls: 1 man, 2 women in the same age range.
(§4) These values are needed to calculate the vitamin K-status in bone (the ratio cOC/ucOC) and to estimate the bone metabolic activity (cOC+ucOC). Here a remarkable difference between the effects of K1 and nattoK2 (i.e.: MK-7) was found: whereas cOC was increased by K1 supplementation, it was decreased by nattoK2. The importance of this finding will become clear from FIGS. 9 and 10.

[2] = serum vitamin K (K1, MK-7) during 6-week daily supplementation with nattoK2 capsules or K1; format: in vivo, human
Description: as §1, §2, §3
MK-7 and K1 have different molecular weights (650 and 450, respectively). Therefore, all doses and concentrations were calculated on a molar basis. Since the daily dose of MK-7 from natto was 18% lower than that from K1 (0.27 and 0.33 μmol/day, respectively), it should be kept in mind that the expected results for natto capsules are similarly lower compared to those for K1. […] The normal ranges for K1 and MK-7 in non-treated subjects are between 500 and 1000 pmol/L (FIG. 5C). […] Due to the limited number of participants, the mean baseline levels in the various groups may differ.

bone loss = conditions: postmenopausal women, intervention studies; cited from earlier work
[3] = system: under-carboxylated osteocalcin (ucOC); test: serum under-carboxylated osteocalcin (ucOC) during 6-week supplementation; format: in vivo, human
Description: as §1, §2, §3

osteocalcin [4] = test: vitamin K status of bone, cOC/ucOC ratio, during 6-week supplementation; format: in vivo, human
Description: as §1, §2, §3, §4

[5] = system: carboxylated osteocalcin (cOC); test: serum carboxylated osteocalcin (cOC) during 6-week supplementation; format: in vivo, human; conditions: 6-week daily supplementation, K1 150 μg or 180 μg MK-7 from nattoK2, FIG. 8
Description: as §1, §2, §3

| serum K1 level, plateau value ([2]; K1 150 μg (0.33 μmol) per day, blood taken about 15 h after intake, mean) | serum K1 level at 15 h after ingestion ([2]; K1 150 μg per day) | time to plateau of serum K1 ([2]; K1 150 μg per day) | increase in total vitamin K status relative to baseline (mean plateau value) ([2]; K1 150 μg per day, 6 weeks, FIG. 6) [pmol/L] | serum K1 level at baseline ([2]; K1 group, day 0, mean) [pmol/L] | SMILES | bone turnover measured as ucOC+cOC, end of regimen (osteocalcin [1]; K1 150 μg per day, 6 weeks) | bone turnover measured as ucOC+cOC, start of regimen (osteocalcin [1]; K1 group) | lower rate of bone loss in supplemented groups (bone loss) [%] | time to reach decreased ucOC value ([3]; K1 150 μg per day) | serum ucOC after treatment ([3]; K1 150 μg per day, value reached within three days) [µg/L] | serum ucOC at baseline ([3]; K1 group) [µg/L] | time to plateau levels of the cOC/ucOC ratio (osteocalcin [4]; K1 supplementation) [days] | treatment-induced change in serum carboxylated osteocalcin (cOC) [5] | time at which mean cOC/ucOC ratio crosses the K1 curve (osteocalcin [4]; menaquinone 7 supplementation, ratio increased gradually, no levelling off) [week] |
| --- | --- | --- | --- | --- | --- | --- | --- | --- | --- | --- | --- | --- | --- | --- |
| around 2000 pmol/L | near-baseline levels | within the first three days | 1500 | 816 | CC1=C(C/C=C(\C)CCC[C@H](C)CCC[C@H](C)CCCC(C)C)C(=O)c2ccccc2C1=O [K1] | 5.33 | 5.28 | 40 | within three days | 1.7 | 2.1 | 3 | increased | – |
| – | – | – | – | – | CC(C)=CCC/C(C)=C/CC/C(C)=C/CC/C(C)=C/CC/C(C)=C/CC/C(C)=C/CC/C(C)=C/CC1=C(C)C(=O)c2ccccc2C1=O [menaquinone 7, (all-E)-2-(3,7,11,15,19,23,27-Heptamethyl-2,6,10,14,18,22,26-octacosaheptaenyl)-3-methyl-1,4-naphthalenedione] | – | – | – | – | – | – | – | – | 5 |
